A short description of one series: Solubility. It counts as physicochemical.

These results are taken from patent US8835134B2, “Cycloastragenol monoglucoside, preparation, pharmaceutical composition and application thereof” (Tianjin Institute of Pharmaceutical Research, priority 2007, dated 2014).

`CC(C)(O)[C@@H]1CC[C@](C)([C@H]2[C@@H](O)C[C@@]3(C)[C@@H]4C[C@H](O[C@@H]5O[C@H](CO)[C@@H](O)[C@H](O)[C@H]5O)[C@H]5C(C)(C)[C@@H](O[C@@H]6OC[C@@H](O)[C@H](O)[C@H]6O)CC[C@@]56C[C@@]46CC[C@]23C)O1` [astragaloside IV, reference compound]: the solubility in the series “Solubility” is 2-4 mg/100 ml.
Regarding `CC(C)(O)[C@@H]1CC[C@](C)([C@H]2[C@@H](O)C[C@@]3(C)C4C[C@H](OC5OC(CO)C(O)C(O)C5O)C5C(C)(C)[C@@H](O)CC[C@@]56C[C@@]46CC[C@]23C)O1` (stereo partly drawn) [CMG, Cycloastragenol-6-O-β-D-glucoside], in the series “Solubility”, the solubility was 40-50 mg/100 ml. Further, the oral absorption result in “Oral absorption” is given as “good oral absorption properties”.
